Assays:
[1] = system: HCV replicon; test: HCV replicon assay (FRET or luciferase reporter); type: cell-based; details: Hepatitis C virus, one of the methods described
Description: To perform the HCV FRET screening assay, 96-well cell culture plates were used, The FRET peptide (Anaspec, Inc.) (Taliani et al., Anal. Biochem., 240:60-67 (1996)) contains a fluorescence donor, EDANS, near one end of the peptide and an acceptor, DABCYL, near the other end. The fluorescence of the peptide is quenched by […] resonance energy transfer (RET) between the donor and the acceptor, but as the NS3 protease cleaves the peptide the products are released from RET quenching and the fluorescence of the donor becomes apparent. The assay reagent was made as follows: 5× cell Luciferase cell culture lysis reagent from Promega (#E153A) diluted to 1× with dH2O, NaCl added to 150 mM final, the FRET peptide diluted to 20 μM final from a 2 mM stock.
To prepare plates, HCV replicon cells, with or without a Renilla luciferase reporter gene, were trypsinized and placed into each well of a 96-well plate with titrated test compounds added in columns 3 through 12; columns 1 and 2 contained a control compound (HCV protease inhibitor), and the bottom row contained cells without compound. The plates were then placed in a CO2 incubator at 37° C.
Subsequent to addition of the test compounds described above (FRET Assay Preparation), at various times the plate was removed and Alamar blue solution (Trek Diagnostics, #00-100) was added per well as a measure of cellular toxicity. After reading in a CYTOFLUOR® 4000 instrument (PE Biosystems), plates were rinsed with PBS and then used for FRET assay by the addition of 30 ul of the FRET peptide assay reagent described above (FRET Assay Preparation) per well. The plate was then placed into the CYTOFLUOR® 4000 instrument which had been set to 340 excite/490 emission, automatic mode for 20 cycles and the plate read in a kinetic mode. Typically, the signal to noise using an endpoint analysis after the reads was at least three-fold. Alternatively, after Alamar blue reading, plates were rinsed with PBS, 50 ul of DMEM (high glucose) without phenol red was added and plates were then used for luciferase assay using the Promega DUAL-GLO® Luciferase Assay System.
Compound analysis was determined by quantification of the relative HCV replicon inhibition and the relative cytotoxicity values. To calculate cytoxicity values, the average Alamar Blue fluorescence signals from the control wells were set as 100% non-toxic. The individual signals in each of the compound test wells were then divided by the average control signal and multiplied by 100% to determine […]. To calculate the HCV replicon inhibition values, an average background value was obtained from the two wells containing the highest amount of HCV protease inhibitor at the end of the assay period. These numbers were similar to those obtained from naïve Huh-7 cells.
The background numbers were then subtracted from the average signal obtained from the control wells and this number was used as 100% activity. The individual signals in each of the compound test wells were then divided by the averaged control values after background subtraction and multiplied by 100% to determine percent activity. EC50 values for a protease inhibitor titration were calculated as the concentration which caused a 50% reduction in FRET or luciferase activity. The two numbers generated for the compound plate, percent cytoxicity and percent activity were used to determine compounds of interest for further analysis.
The HCV replicon luciferase assay was developed to monitor the inhibitory effects of compounds described in the disclosure on HCV viral replication. Utilization of a replicon luciferase reporter assay was first described by Krieger et al (Krieger, N. et al., J. Virology, 75(10):4614-4624 (2001)). HUH-7 cells, constitutively expressing the HCV replicon, were grown in Dulbecco's Modified Eagle Media (DMEM) (Gibco-BRL) containing 10% Fetal calf serum (FCS) (Sigma) and 1 mg/ml G418 (Gibco-BRL). […]

[2] = molecular target: T1, HCV NS5B (Hepatitis C virus genotype 1b, UniProt Q9WMX2); test: Modified HCV NS5B RdRp enzyme assay (preincubation protocol); type: biochemical
T1 construct: The protein was expressed with an 18 amino acid C-terminal truncation to enhance the solubility; made in house; host or cells: E. coli BL21(DE3)
T1 sequence (Q9WMX2 2420-2992): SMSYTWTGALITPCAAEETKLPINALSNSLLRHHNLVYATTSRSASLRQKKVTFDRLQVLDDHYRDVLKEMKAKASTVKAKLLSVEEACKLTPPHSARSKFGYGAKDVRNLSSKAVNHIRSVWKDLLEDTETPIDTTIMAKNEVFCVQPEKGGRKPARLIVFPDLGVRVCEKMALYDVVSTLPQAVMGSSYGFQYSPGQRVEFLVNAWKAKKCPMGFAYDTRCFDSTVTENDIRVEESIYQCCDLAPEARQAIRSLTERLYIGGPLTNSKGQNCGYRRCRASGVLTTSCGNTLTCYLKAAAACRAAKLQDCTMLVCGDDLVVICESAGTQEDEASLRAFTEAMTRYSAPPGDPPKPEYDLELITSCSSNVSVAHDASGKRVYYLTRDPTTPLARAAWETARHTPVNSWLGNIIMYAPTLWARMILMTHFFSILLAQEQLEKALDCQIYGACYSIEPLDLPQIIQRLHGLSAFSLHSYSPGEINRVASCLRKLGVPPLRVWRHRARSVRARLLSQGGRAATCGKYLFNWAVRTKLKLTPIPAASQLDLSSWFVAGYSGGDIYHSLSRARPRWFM
Experimental: The cDNA encoding the NS5B protein of HCV, genotype 1b, was cloned into the pET21a expression vector. The protein was expressed with an 18 amino acid C-terminal truncation to enhance the solubility. The E. coli competent cell line BL21(DE3) was used for expression of the protein. Cultures were grown at 37° C. for ˜4 hours until the cultures reached an optical density of 2.0 at 600 nm. The cultures were cooled to 20° C. and induced with 1 mM IPTG. Fresh ampicillin was added to a final concentration of 50 μg/ml and the cells were grown overnight at 20° C.
Cell pellets (3 L) were lysed for purification to yield 15-24 mgs of purified NS5B. The lysis buffer consisted of 20 mM Tris-HCl, pH 7.4, 500 mM NaCl, 0.5% triton X-100, 1 mM DTT, 1 mM EDTA, 20% glycerol, 0.5 mg/ml lysozyme, 10 mM MgCl2, 15 ug/ml deoxyribonuclease I, and Complete TM protease inhibitor tablets (Roche). After addition of the lysis buffer, frozen cell pellets were resuspended using a tissue homogenizer. To reduce the viscosity of the sample, aliquots of the lysate were sonicated on ice using a microtip attached to a Branson sonicator. The sonicated lysate was centrifuged at 100,000×g for 1 hr at 4° C. and filtered through a 0.2 μm filter unit (Corning).
The protein was purified using three sequential chromatography steps: Heparin sepharose CL-6B, polyU sepharose 4B, and […] SP sepharose (Pharmacia). The chromatography buffers were identical to the lysis buffer but contained no lysozyme, deoxyribonuclease I, MgCl2 or protease inhibitor and the NaCl concentration of the buffer was adjusted according to the requirements for charging the protein onto the column. Each column was eluted with a NaCl gradient which varied in length from 5-50 column volumes depending on the column type. After the final chromatography step, the resulting purity of the enzyme is >90% based on SDS-PAGE analysis. The enzyme was aliquoted and stored at −80° C.
HCV RdRp genotype 1b assays were run in a final volume of 60 μl in 96 well plates (Costar 3912). The assay buffer is composed of 20 mM Hepes, pH 7.5, 2.5 mM KCl, 2.5 mM MgCl2, 1 mM DTT, 1.6 U RNAse inhibitor (Promega N2515), 0.1 mg/ml BSA (Promega R3961), and 2% glycerol. All compounds were serially diluted (3-fold) in DMSO and diluted further in water such that the final concentration of DMSO in the assay was 2%. HCV RdRp genotype 1b enzyme was used at a final concentration of 28 nM. A polyA template was used at 6 nM, and a biotinylated oligo-dT12 primer was used at 180 nM final concentration. Template was obtained commercially (Amersham 27-4110). Biotinylated primer was prepared by Sigma Genosys. 3H-UTP was used at 0.6 μCi (0.29 μM total UTP). Reactions were initiated by the addition of enzyme, incubated at 30° C. for 60 min, and stopped by adding 25 μl of 50 mM EDTA containing SPA beads (4 μg/μl, Amersham RPNQ 0007). Plates were read on a Packard TOPCOUNT® NXT after >1 hr incubation at room temperature.
A modified enzyme assay was performed essentially as described for the standard enzyme assay except for the following: The biotinylated oligo dT12 primer was precaptured on streptavidin-coated SPA beads by mixing primer and beads in assay buffer and incubating at room temperature for one hour. Unbound primer was removed after centrifugation. The primer-bound beads were resuspended in 20 mM Hepes buffer, pH 7.5 and used in the assay at final concentrations of 20 nM primer and 0.67 μg/μl beads. Order of addition in the assay: enzyme (14 nM) was added to diluted compound followed by the addition of a mixture of template (0.2 nM), 3H-UTP (0.6 μCi, 0.29 μM), and primer-bound beads, to initiate the reaction; concentrations given are final. Reactions were allowed to proceed for 4 hours at 30° C.
IC50 values for compounds were determined using seven different [I]. IC50 values were calculated from the inhibition using the formula y=A+((B−A)/(1+((C/x)^D))).

Row | Compound | EC50 ([1]; class symbol) [nM] | EC50 ([1]; exact value) [nM] | IC50 ([2]; class symbol) [nM] | IC50 ([2]; exact value) [nM]
1 | COc1ccc2c(c1)C=C(c1c(C(=O)N3C[C@@H](C)O[C@@H](C)C3)cnn1C1CCOCC1)Cn1c-2c(C2CCCCC2)c2ccc(C(=O)NS(=O)(=O)C(C)C)cc21 | 1.7 to 500 | 8.9 | 1.7 to 500 | 2.6
2 | COc1ccc2c(c1)C=C(c1c(C(=O)N3CCOCC3)cnn1C1CCOCC1)Cn1c-2c(C2CCCCC2)c2ccc(C(=O)NS(=O)(=O)C(C)C)cc21 | 1.7 to 500 |  | 1.7 to 500 | 
3 | COc1ccc2c(c1)C=C(c1c(C(=O)N3C4CCC3CN(C)C4)cnn1C1CCOCC1)Cn1c-2c(C2CCCCC2)c2ccc(C(=O)NS(=O)(=O)C(C)C)cc21 | 1.7 to 500 |  | 1.7 to 500 | 
4 | COc1ccc2c(c1)C=C(c1c(C(=O)N3C[C@@H](C)N(C)[C@@H](C)C3)cnn1C1CCOCC1)Cn1c-2c(C2CCCCC2)c2ccc(C(=O)NS(=O)(=O)C(C)C)cc21 | 1.7 to 500 |  | 1.7 to 500 | 
5 | CCN1C[C@@H]2C[C@H]1CN2C(=O)c1cnn(C2CCOCC2)c1C1=Cc2cc(OC)ccc2-c2c(C3CCCCC3)c3ccc(C(=O)NS(=O)(=O)C(C)C)cc3n2C1 | 1.7 to 500 |  | 1.7 to 500 | 
6 | COc1ccc2c(c1)C=C(c1c(C(=O)N3CC4CCC(C3)N4C)cnn1C1CCOCC1)Cn1c-2c(C2CCCCC2)c2ccc(C(=O)NS(=O)(=O)C(C)C)cc21 | 1.7 to 500 |  | 1.7 to 500 | 
7 | COc1ccc2c(c1)C=C(c1c(C(=O)N3C[C@@H](C)O[C@@H](C)C3)cnn1C1CCOCC1)Cn1c-2c(C2CCCCC2)c2ccc(C(=O)NS(=O)(=O)CC(C)C)cc21 | 1.7 to 500 |  | 1.7 to 500 | 
8 | COc1ccc2c(c1)C=C(c1c(C(=O)N3CCOCC3)cnn1C1CCOCC1)Cn1c-2c(C2CCCCC2)c2ccc(C(=O)NS(=O)(=O)CC(C)C)cc21 | 1.7 to 500 | 8.4 | 1.7 to 500 | 4.2
9 | COc1ccc2c(c1)C=C(c1c(C(=O)N3C4CCC3CN(C)C4)cnn1C1CCOCC1)Cn1c-2c(C2CCCCC2)c2ccc(C(=O)NS(=O)(=O)CC(C)C)cc21 | 1.7 to 500 |  | 1.7 to 500 | 
10 | COc1ccc2c(c1)C=C(c1c(C(=O)N3C[C@@H](C)N(C)[C@@H](C)C3)cnn1C1CCOCC1)Cn1c-2c(C2CCCCC2)c2ccc(C(=O)NS(=O)(=O)CC(C)C)cc21 | 1.7 to 500 |  | 1.7 to 500 | 
11 | CCN1C[C@@H]2C[C@H]1CN2C(=O)c1cnn(C2CCOCC2)c1C1=Cc2cc(OC)ccc2-c2c(C3CCCCC3)c3ccc(C(=O)NS(=O)(=O)CC(C)C)cc3n2C1 | 1.7 to 500 |  | 1.7 to 500 | 
12 | COc1ccc2c(c1)C=C(c1c(C(=O)N3CC4CCC(C3)N4C)cnn1C1CCOCC1)Cn1c-2c(C2CCCCC2)c2ccc(C(=O)NS(=O)(=O)CC(C)C)cc21 | 1.7 to 500 |  | 1.7 to 500 | 
13 | COc1ccc2c(c1)C=C(c1c(C(=O)N3C[C@@H](C)O[C@@H](C)C3)cnn1-c1ccncc1C)Cn1c-2c(C2CCCCC2)c2ccc(C(=O)NS(=O)(=O)C3CC3)cc21 | 1.7 to 500 |  | 1.7 to 500 | 
14 | COc1ccc2c(c1)C=C(c1c(C(=O)N3C[C@@H](C)O[C@@H](C)C3)cnn1-c1ccccc1)Cn1c-2c(C2CCCCC2)c2ccc(C(=O)NS(=O)(=O)C(C)C)cc21 | 1.7 to 500 |  | 1.7 to 500 | 
15 | COc1ccc2c(c1)C=C(c1c(C(=O)N3C[C@@H](C)O[C@@H](C)C3)cnn1-c1ccccn1)Cn1c-2c(C2CCCCC2)c2ccc(C(=O)NS(=O)(=O)C(C)C)cc21 | 1.7 to 500 |  | 1.7 to 500 | 
16 | COc1ccc2c(c1)C=C(c1c(C(=O)N3C[C@@H](C)O[C@@H](C)C3)cnn1C1CCCC1)Cn1c-2c(C2CCCCC2)c2ccc(C(=O)NS(=O)(=O)C(C)C)cc21 | 1.7 to 500 |  | 1.7 to 500 | 
17 | COc1ccc2c(c1)C=C(c1c(C(=O)N3C[C@@H](C)O[C@@H](C)C3)cnn1-c1ncccn1)Cn1c-2c(C2CCCCC2)c2ccc(C(=O)NS(=O)(=O)C(C)C)cc21 | 1.7 to 500 |  | 1.7 to 500 | 
18 | COc1ccc2c(c1)C=C(c1c(C(=O)N3C[C@@H](C)O[C@@H](C)C3)cnn1-c1cc[nH]c(=O)c1)Cn1c-2c(C2CCCCC2)c2ccc(C(=O)NS(=O)(=O)C(C)C)cc21 | > 1000 | > 1000 | 1.7 to 500 | 8.9
19 | COc1ccc2c(c1)C=C(c1c(C(=O)N3C[C@@H](C)O[C@@H](C)C3)cnn1-c1ccncc1)Cn1c-2c(C2CCCCC2)c2ccc(C(=O)NS(=O)(=O)C(C)C)cc21 | 1.7 to 500 |  | 1.7 to 500 | 
20 | COc1ccc2c(c1)C=C(c1c(C(=O)O)noc1C1CC1)Cn1c-2c(C2CCCCC2)c2ccc(C(=O)NS(=O)(=O)N(C)C)cc21 | 1.7 to 500 |  |  | 
21 | COc1ccc2c(c1)C=C(c1ncn(C3CC3)c1C(=O)N1C[C@@H](C)O[C@@H](C)C1)Cn1c-2c(C2CCCCC2)c2ccc(C(=O)NS(=O)(=O)C(C)C)cc21 | 1.7 to 500 |  |  | 
22 | COc1ccc2c(c1)C=C(c1c(C(=O)N3CC4CCC3CN4)cnn1C1CCC1)Cn1c-2c(C2CCCCC2)c2ccc(C(=O)NS(=O)(=O)C(C)C)cc21 (stereo not shown) | 1.7 to 500 |  |  | 
23 | COc1ccc2c(c1)C=C(c1c(C(=O)N3CCOCC4(CNC4)C3)cnn1C1CCC1)Cn1c-2c(C2CCCCC2)c2ccc(C(=O)NS(=O)(=O)C(C)C)cc21 | 1.7 to 500 | 350 |  | 

— patent publication US8133884B2, “Compounds for the treatment of hepatitis C” (priority 2008, dated 2012)
